l = locked nucleic acid (LNA); d = 2'-deoxy (DNA)
Experiments:
[1] = tested on: hCD39 mRNA; experiment: hCD39 mRNA knockdown efficacy screen in A-172 cells (single dose, gymnotic delivery, QuantiGene Singleplex); type: cell-based, human; conditions: 10 μM, 3 days, normalized to HPRT1; for Mean hCD39 mRNA expression (relative to untreated cells set as 1): first screening round; for Relative hCD39 mRNA expression (compared to non-treated cells): second screening round
Method: (§1) FIGS. 2A to 2D depict hCD39 mRNA knockdown efficacy of hCD39 antisense oligonucleotides in human cancer cell lines HDLM-2 (human Hodgkin Lymphoma) in a first and second screening round (FIGS. 2A-1 and 2A-2) and 2B-1 and 2B-2 and A-172 (human glioblastoma) in a first and second screening round (FIGS. 2C-1 and 2C-2) and 2D-1 and 2D-2. HDLM-2 and A-172 cells were treated for 3 days with 10 μM of the respective antisense oligonucleotide. As negative control, cells were treated with neg1, an antisense oligonucleotide having the sequence CGTTTAGGCTATGTACTT (SEQ ID NO:99) (described in WO2014154843 A1). Residual hCD39 mRNA expression relative to untreated cells is depicted. Expression values were normalized to expression of the housekeeping gene HPRT1. Depicted is the mean of triplicate wells+/−SD.
(§2) FIGS. 6A-6B depicts a third screening round where further antisense oligonucleotides were designed. These antisense oligonucleotides were based on efficient antisense oligonucleotides from the first and second screening round. Therefore, hCD39 antisense oligonucleotides were tested in human cancer cell lines HDLM-2 (human Hodgkin's lymphoma) (FIG. 6A) and A-172 (human glioblastoma) (FIG. 6B). HDLM-2 and A-172 cells were treated for 3 days with 10 μM of the respective antisense oligonucleotide. […] Residual hCD39 mRNA expression relative to untreated cells (set as 1) is depicted.
(§3) In order to analyze the efficacy of hCD39 antisense oligonucleotides of the present invention with regard to the knockdown of hCD39 mRNA expression in cancer cell lines, HDLM-2 (human Hodgkin Lymphoma, DSMZ) and A-172 (human glioblastoma, ATCC) cells were treated with a single dose (concentration: 10 μM without addition of any transfection reagent; this process is called gymnotic delivery) of the respective antisense oligonucleotide as shown in FIG. 2A to 2D. hCD39 and HPRT1 mRNA expression was analyzed three days later using the QuantiGene Singleplex assay (Affymetrix) and hCD39 expression values were normalized to HPRT1 values. […] Values of the mean normalized mRNA expression of hCD39 compared to non-treated cells are listed for A-172 (Table 4 for first screening round and Table 5 for second screening round) and HDLM-2 cells (Table 6 for first screening round and Table 7 for second screening round) in the following:
(§4) For a third screening round, new antisense oligonucleotides were designed. These antisense oligonucleotides were based on efficient antisense oligonucleotides from the first screening round with modifications in length, exact position on mRNA and chemical modification pattern. Therefore, hCD39 antisense oligonucleotides were tested in human cancer cell lines (FIG. 6A, Table 10) HDLM-2 (human Hodgkin's lymphoma) and (FIG. 6B, Table 11) A-172 (human glioblastoma). HDLM-2 and A-172 cells were treated for 3 days with 10 μM of the respective antisense oligonucleotide. […] Residual hCD39 mRNA expression relative to untreated cells (set as 1) is depicted.

[2] = tested on: hCD39 mRNA; experiment: hCD39 mRNA knockdown efficacy screen in HDLM-2 cells (single dose, gymnotic delivery, QuantiGene Singleplex); type: cell-based, human; design: key to Relative hCD39 mRNA expression (compared to non-treated cells): *: values are below detection limit; conditions: 10 μM, 3 days; for Mean hCD39 mRNA expression normalized to HPRT1 relative to untreated control = 1: first screening round; for Relative hCD39 mRNA expression (compared to non-treated cells): second screening round, normalized to HPRT1
Method: as §1, §2, §3, §4

Substance	Mean hCD39 mRNA expression (relative to untreated cells set as 1) [1]	Relative hCD39 mRNA expression (compared to non-treated cells) [1]	Mean hCD39 mRNA expression normalized to HPRT1 relative to untreated control = 1 [2]	Relative hCD39 mRNA expression (compared to non-treated cells) [2]
+A*+A*+A*G*T*C*C*A*G*C*C*G*G*C*G*+T*+C (antisense AAAGTCCAGCCGGCGTC; sugars from the 5' end l3 d12 l2, all phosphorothioate, methylation of C not given here) [A04050H]	0.55	0.28	0.11	0.90
+A*+A*+G*G*T*C*A*C*T*T*A*C*G*T*+T*+C*+A (antisense AAGGTCACTTACGTTCA; sugars from the 5' end l3 d11 l3, all phosphorothioate, methylation of C not given here) [A04046H]	0.14	0.08	0.04	0.37
+A*+A*+T*C*C*C*C*C*T*G*G*A*+G*+T*+G (antisense AATCCCCCTGGAGTG; sugars from the 5' end l3 d9 l3, all phosphorothioate, methylation of C not given here) [A04011H]	–	0.69	0.29	0.30
+A*+C*+G*T*T*C*A*C*T*A*C*C*T*T*+C*+T*+T (antisense ACGTTCACTACCTTCTT; sugars from the 5' end l3 d11 l3, all phosphorothioate, methylation of C not given here) [A04043H]	0.21	0.11	0.04	*
+A*+C*+T*A*T*G*C*T*G*A*A*C*C*A*+C*+C (antisense ACTATGCTGAACCACC; sugars from the 5' end l3 d11 l2, all phosphorothioate, methylation of C not given here) [A04022H]	0.14	0.15	0.09	0.09
+A*+C*+T*C*C*A*C*A*C*T*A*A*T*+G*+C*+T (antisense ACTCCACACTAATGCT; sugars from the 5' end l3 d10 l3, all phosphorothioate, methylation of C not given here) [A04037H]	0.17	0.09	0.12	0.10
+A*+C*+T*C*C*A*G*C*G*T*A*A*+G*+A*+T (antisense ACTCCAGCGTAAGAT; sugars from the 5' end l3 d9 l3, all phosphorothioate, methylation of C not given here) [A04013H]	–	0.75	0.22	0.22
+A*+G*+C*C*T*A*T*G*A*T*G*G*C*C*+A*+C (antisense AGCCTATGATGGCCAC; sugars from the 5' end l3 d11 l2, all phosphorothioate, methylation of C not given here) [A04031H]	–	0.55	–	*
+A*+G*+C*G*T*A*A*G*A*T*G*T*+T*+T*+T (antisense AGCGTAAGATGTTTT; sugars from the 5' end l3 d9 l3, all phosphorothioate, methylation of C not given here) [A04012H]	0.43	0.43	0.11	0.10
+A*+G*+G*C*G*A*A*A*T*T*G*C*+A*+G*+A (antisense AGGCGAAATTGCAGA; sugars from the 5' end l3 d9 l3, all phosphorothioate, methylation of C not given here) [A04008H]	0.46	0.46	0.20	0.20
+A*+G*A*G*T*G*C*C*T*G*A*T*C*C*+T*+T (antisense AGAGTGCCTGATCCTT; sugars from the 5' end l2 d12 l2, all phosphorothioate, methylation of C not given here) [A04025H]	0.13	0.13	0.08	0.08
+A*+G*G*A*T*A*G*T*C*T*T*G*T*C*+T*+C (antisense AGGATAGTCTTGTCTC; sugars from the 5' end l2 d12 l2, all phosphorothioate, methylation of C not given here) [A04034H]	0.28	0.15	0.06	0.06
+A*+G*T*C*C*A*G*C*C*G*G*C*G*T*+C (antisense AGTCCAGCCGGCGTC; sugars from the 5' end l2 d12 l1, all phosphorothioate, methylation of C not given here) [A04015H]	–	1.05	0.29	0.29
+A*+T*+G*T*A*G*C*C*C*A*A*A*G*T*+C*+C (antisense ATGTAGCCCAAAGTCC; sugars from the 5' end l3 d11 l2, all phosphorothioate, methylation of C not given here) [A04028H]	0.29	0.29	0.07	0.07
+C*+A*+T*G*T*A*G*C*C*C*A*A*A*+G*+T*+C (antisense CATGTAGCCCAAAGTC; sugars from the 5' end l3 d10 l3, all phosphorothioate, methylation of C not given here) [A04029H]	0.45	0.46	0.03	0.03
+C*+C*+C*T*C*T*C*A*C*T*A*A*A*+T*+T*+A (antisense CCCTCTCACTAAATTA; sugars from the 5' end l3 d10 l3, all phosphorothioate, methylation of C not given here) [A04036H]	0.55	0.28	0.26	0.01
+C*+C*C*T*G*G*A*T*C*T*T*G*C*C*+A*+A*+T (antisense CCCTGGATCTTGCCAAT; sugars from the 5' end l2 d12 l3, all phosphorothioate, methylation of C not given here) [A04049H]	–	0.45	–	*
+C*+T*+A*T*G*C*T*G*A*A*C*C*+A*+C*+C (antisense CTATGCTGAACCACC; sugars from the 5' end l3 d9 l3, all phosphorothioate, methylation of C not given here) [A04005H]	0.11	0.11	0.21	0.21

From US11959083B2, “Immunosuppression-reverting oligonucleotides inhibiting the expression of CD39” (Secarna Pharmaceuticals GmbH & Co. KG, priority 2016, dated 2024)
